Data reported in patent US20230406885A1, “CYCLIC PEPTIDES FOR TRAPPING INTERLEUKIN-1 BETA” (MERCK SHARP & DOHME LLC, priority 2022, published 2023).
*1 amine or outer side, *2 acyl side, *3 side chain or, on linkers, in order; H or OH if unused. Where a SMILES comes first, the peptide text is derived from it. [ ]: non-standard residue; d: D form. Trp(4-Cl)(βS-Me) = C[C@@H](c1c[nH]c2cccc(Cl)c12)[C@H](N)C(=O)O; Trp(βS-Me,4-F) = C[C@@H](c1c[nH]c2cccc(F)c12)[C@H](N)C(=O)O; Bip(4'-COOH) = N[C@@H](Cc1ccc(-c2ccc(C(=O)O)cc2)cc1)C(=O)O; 1Nal(3S-Me) = C[C@@H](c1cccc2ccccc12)[C@H](N)C(=O)O; X12 = CC(=O)NCCOc1ccc(C[C@H](N[*:1])C(=O)[*:2])cn1; Phe(4-COOH) = N[C@@H](Cc1ccc(C(=O)O)cc1)C(=O)O; h3Pal(5-CN) = N#Cc1cncc(CC[C@H](N)C(=O)O)c1; Pro(4R-NH2) = N[C@H]1CN[C@H](C(=O)O)C1; 1Nal = N[C@@H](Cc1cccc2ccccc12)C(=O)O; AEF = NCCOc1ccc(C[C@H](N)C(=O)O)cc1; hTyr = N[C@@H](CCc1ccc(O)cc1)C(=O)O; Orn = NCCC[C@H](N)C(=O)O; dNMeA = CN[C@H](C)C(=O)O; Dap = NC[C@H](N)C(=O)O; Aib = CC(C)(N)C(=O)O

Molecular target: T1, Recombinant human IL-1β (Homo sapiens, UniProt P01584)
T1 construct: purchased BioLegend 579404
T1 sequence (P01584 117-269): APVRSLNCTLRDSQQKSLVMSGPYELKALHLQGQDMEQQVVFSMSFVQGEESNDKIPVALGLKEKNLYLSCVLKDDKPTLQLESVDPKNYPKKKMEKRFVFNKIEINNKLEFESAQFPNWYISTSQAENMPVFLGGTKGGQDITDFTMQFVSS
Test: IL-6 assay in MRC5 cells: inhibition of IL-1β induced IL-6 secretion (AlphaLISA)
Assay type: cell-based
Settings: inhibition of IL-1β induced IL-6 secretion in MRC5 cells; IL-1β pre-incubated 1 hour with compound; read-out: MRC5 IC50
Outline: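 IL-1β at 2×EC80 in seeding medium (EMEM, 0.025% BSA) preincubated 1 h at ambient temperature with compound, then 3000 MRC5 cells/well added and incubated overnight at 37 °C, 5% CO2. IL-6 in conditioned medium quantified by AlphaLISA; IC50 from 4-parameter logistic fit.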

Compound | IC50 [nM]
CC(=O)NCCOc1ccc(C[C@@H]2NC(=O)[C@H](CCc3ccc(O)cc3)NC(=O)[C@@H](C)NC(=O)[C@H](CC(C)C)NC(=O)[C@H](CCCCN)NC(=O)[C@H](Cc3ccc(-c4ccc(C(=O)O)cc4)cc3)NC(=O)CNC(=O)[C@@H](C)N(C)C(=O)[C@H](CC(=O)O)NC(=O)[C@H]([C@@H](C)c3c[nH]c4cccc(F)c34)NC(=O)[C@@H]3C[C@@H](N)CN3C(=O)CNC(=O)[C@H](Cc3ccc(C(=O)O)cc3)NC(=O)[C@H](Cc3c[nH]c4ccccc34)NC2=O)cn1 [Example 9] (cyclo([X12]W[Phe(4-COOH)]G[Pro(4R-NH2)][Trp(βS-Me,4-F)]D[dNMeA]G[Bip(4'-COOH)]KL[dA][hTyr])) | 0.118
C[C@@H]1C(=O)NCC(=O)N[C@@H](Cc2ccc(-c3ccc(C(=O)O)cc3)cc2)C(=O)N[C@@H](Cc2cccc3ccccc23)C(=O)N[C@@H](CN)C(=O)NC(C)(C)C(=O)NCC(=O)N[C@@H](Cc2ccc(-c3ccc(C(=O)O)cc3)cc2)C(=O)N[C@@H](Cc2c[nH]c3ccccc23)C(=O)N[C@@H](Cc2ccc(C(=O)O)cc2)C(=O)NCC(=O)N2C[C@H](N)C[C@H]2C(=O)N[C@@H]([C@@H](C)c2cccc3ccccc23)C(=O)N[C@@H](CC(=O)O)C(=O)N1C [Example 17] (cyclo([Bip(4'-COOH)]W[Phe(4-COOH)]G[Pro(4R-NH2)][1Nal(3S-Me)]D[dNMeA]G[Bip(4'-COOH)][1Nal][Dap][Aib]G)) | 0.222
C[C@@H]1C(=O)NCC(=O)N[C@@H](Cc2ccc(-c3ccc(C(=O)O)cc3)cc2)C(=O)N[C@@H](CCCN)C(=O)N[C@@H](CO)C(=O)N[C@H](C)C(=O)N[C@@H](CCc2ccc(O)cc2)C(=O)N[C@@H](Cc2ccc(-c3ccc(C(=O)O)cc3)cc2)C(=O)N[C@@H](Cc2c[nH]c3ccccc23)C(=O)N[C@@H](Cc2ccc(C(=O)O)cc2)C(=O)NCC(=O)N2C[C@H](N)C[C@H]2C(=O)N[C@@H]([C@@H](C)c2c[nH]c3cccc(Cl)c23)C(=O)N[C@@H](CC(=O)O)C(=O)N1C [Example 49] (cyclo([Bip(4'-COOH)]W[Phe(4-COOH)]G[Pro(4R-NH2)][Trp(4-Cl)(βS-Me)]D[dNMeA]G[Bip(4'-COOH)][Orn]S[dA][hTyr])) | 0.402

Next, values leading:

IC50 [nM] | Compound
0.0542 | CC(C)C[C@@H]1NC(=O)[C@H](CCCCN)NC(=O)[C@H](Cc2ccc(-c3ccc(C(=O)O)cc3)cc2)NC(=O)CNC(=O)[C@@H](C)N(C)C(=O)[C@H](CC(=O)O)NC(=O)[C@H]([C@@H](C)c2cccc3ccccc23)NC(=O)[C@@H]2C[C@@H](N)CN2C(=O)CNC(=O)[C@H](Cc2ccc(C(=O)O)cc2)NC(=O)[C@H](Cc2c[nH]c3ccccc23)NC(=O)[C@H](Cc2ccc(-c3ccc(C(=O)O)cc3)cc2)NC(=O)[C@H](CCc2ccc(O)cc2)NC(=O)[C@@H](C)NC1=O [Example 25] (cyclo([Bip(4'-COOH)]W[Phe(4-COOH)]G[Pro(4R-NH2)][1Nal(3S-Me)]D[dNMeA]G[Bip(4'-COOH)]KL[dA][hTyr]))
0.0639 | CC(=O)NCCOc1ccc(C[C@@H]2NC(=O)[C@H](CCc3cncc(C#N)c3)NC(=O)C(C)(C)NC(=O)[C@H](CN)NC(=O)[C@H](Cc3cccc4ccccc34)NC(=O)[C@H](Cc3ccc(-c4ccc(C(=O)O)cc4)cc3)NC(=O)CNC(=O)[C@@H](C)N(C)C(=O)[C@H](CC(=O)O)NC(=O)[C@H]([C@@H](C)c3cccc4ccccc34)NC(=O)[C@@H]3C[C@@H](N)CN3C(=O)CNC(=O)[C@H](Cc3ccc(C(=O)O)cc3)NC(=O)[C@H](Cc3c[nH]c4ccccc34)NC2=O)cc1 [Example 94] (cyclo([AEF](Ac)W[Phe(4-COOH)]G[Pro(4R-NH2)][1Nal(3S-Me)]D[dNMeA]G[Bip(4'-COOH)][1Nal][Dap][Aib][h3Pal(5-CN)]))
0.0885 | C[C@@H]1C(=O)NCC(=O)N[C@@H](Cc2ccc(-c3ccc(C(=O)O)cc3)cc2)C(=O)N[C@@H](Cc2cccc3ccccc23)C(=O)N[C@@H](CN)C(=O)NC(C)(C)C(=O)N[C@@H](CCc2cncc(C#N)c2)C(=O)N[C@@H](Cc2ccc(-c3ccc(C(=O)O)cc3)cc2)C(=O)N[C@@H](Cc2c[nH]c3ccccc23)C(=O)N[C@@H](Cc2ccc(C(=O)O)cc2)C(=O)NCC(=O)N2C[C@H](N)C[C@H]2C(=O)N[C@@H]([C@@H](C)c2cccc3ccccc23)C(=O)N[C@@H](CC(=O)O)C(=O)N1C [Example 18] (cyclo([Bip(4'-COOH)]W[Phe(4-COOH)]G[Pro(4R-NH2)][1Nal(3S-Me)]D[dNMeA]G[Bip(4'-COOH)][1Nal][Dap][Aib][h3Pal(5-CN)]))

Same assay, conditions: inhibition of IL-1β induced IL-6 secretion in MRC5 cells; read-out: MRC5 IC50

Compound | IC50 [nM]
CC(=O)NCCOc1ccc(C[C@@H]2NC(=O)[C@H](CCc3ccc(O)cc3)NC(=O)[C@@H](C)NC(=O)[C@H](CN)NC(=O)[C@H](Cc3c[nH]c4ccccc34)NC(=O)[C@H](Cc3ccc(-c4ccc(C(=O)O)cc4)cc3)NC(=O)CNC(=O)[C@@H](C)N(C)C(=O)[C@H](CC(=O)O)NC(=O)[C@H]([C@@H](C)c3cccc4ccccc34)NC(=O)[C@@H]3C[C@@H](N)CN3C(=O)CNC(=O)[C@H](Cc3ccc(C(=O)O)cc3)NC(=O)[C@H](Cc3c[nH]c4ccccc34)NC2=O)cc1 [Example 119] (cyclo([AEF](Ac)W[Phe(4-COOH)]G[Pro(4R-NH2)][1Nal(3S-Me)]D[dNMeA]G[Bip(4'-COOH)]W[Dap][dA][hTyr])) | 0.0602
